Data published in patent US20210008015A1, “HEPATOPROTECTENT PHENYLBUTYRATYRATE DRUG CONJUGATES, AND THEIR COMPOSITIONS PREPARATION AND METHODS OF USE THEREOF” (priority 2019, published 2021).
“And” between values parts separate entries of the source, which are not always exact repeats. Equal values may be shown once.

Tests used:
Sprague Dawley (SD) rats = experiment: In vivo safety and dose ranging study
formaldehyde pain model = experiment: In vivo comparative pain-relieving model study (formaldehyde pain model); parameters: species or system Rabbits; details: Test 300 mg/kg orally, reference 150 mg/kg; for Amplitude of rubbing activity, Mean / Amplitude of rubbing activity, Sum: group of 4 rabbits; for Amplitude of rubbing activity, Mean / Amplitude of rubbing activity, Sum / Amplitude of rubbing activity: 60 min post dose of formalin; for No. of rubbings / Amplitude of rubbing activity: individual rabbit; for No. of rubbings: 60 min post dose of formalin (2.5%, 0.1 ml into paw)
Procedure: 12 Rabbits (M&F) (formaldehyde pain model 6 hr) were divided into 3 groups 4 rabbits in each group, Group-A Test (Acetaminophen phenylbutyrate) and Group-B reference (Acetaminophen) and Group-C Control (placebo). Group-A 4 rabbits (2M & 2F) were treated with Test 300 mg/kg orally given and 150 mg/kg; reference compound given to Group-B 4 rabbits (2M & 2F) and placebo given to group-C after 15 min each rat was dosed with 2.5% formalin in saline solution 0.1 ml was injected into middle of paw, and monitor for number of licking or scratching's happened with each animal in all groups and compared each group with other in the below table.

yeast-induced pyrexia = experiment: In vivo comparative antipyretic effect study (Baker's yeast induced pyrexia); parameters: species or system SD rats; details: for Effect on yeast-induced pyrexia (rise in temperature), 3 hours / Effect on yeast-induced pyrexia (rise in temperature), 6 hours / Effect on yeast-induced pyrexia (rise in temperature), 9 hours: SD rats, Test 300 mg/kg orally, reference 150 mg/kg, Mean ± SD, in °C (unit assumed)
Procedure: The in vivo pharmacological study conducted the anti-pyretic activity of acetaminophen Phenylbutyrate (APPB) formulations in SD rats against yeast induced pyrexia 12 rats (M&F) (Baker's yeast induced antipyretic model 24 hr) After measuring basal TR of the animals, they were injected with a pyrogenic dose of Baker's yeast (0.135 g/kg, i.p.). TR changes were recorded every hour up to 4 h. […] Animals were randomly divided into three groups 4 rats in each group, Group-A Test (Acetaminophen phenylbutyrate) and Group-B reference (Acetaminophen) and Group-C Control (placebo). Group-A 4 rats (2M & 2F) were treated with Test 300 mg/kg orally given and 150 mg/kg reference compound given to Group-B 4 rats (2M & 2F) and placebo given to group-C. From the time baker yeast injection body temperature will rise keep monitor every 30-60 min once and record. And after treatment (time after treatment with test, reference and placebo) the body temperature was monitored rectally, for next 6 hr (0, 0.5, 1.0, 1.5, 2, 3, 4, and 6) using digital thermometer which can capture 0.1 F body temp ad recorded. […] Yeast injection in experimental animals caused significant rise in body temperature at the various time intervals as recorded rectally with the help of a tele-thermometer.

CC(=O)N(C(=O)CCCc1ccccc1)c1ccc(O)cc1 [APPB, N-(4-phenylbutanoyl)-N-(4-hydroxyphenyl)acetanyide]
treatment related clinical signs (Sprague Dawley (SD) rats; 500, 1000 and 1500 mg/kg/per day orally for 5 days, M&F SD rats): No treatment related clinical signs were noticed
survival (Sprague Dawley (SD) rats; 500, 1000 and 1500 mg/kg/per day orally for 5 days, observation for one week after treatment): All group animals were survived
overall safety conclusion (Sprague Dawley (SD) rats; 500-1500 mg/kg/per day orally for 5 days): safe for prolonged use at higher doses
Amplitude of rubbing activity, Mean (formaldehyde pain model): 3.62 s
Amplitude of rubbing activity, Sum (formaldehyde pain model): 36.19 s
No. of rubbings (formaldehyde pain model): 4 and 3 and 2 and 1
Amplitude of rubbing activity (formaldehyde pain model): 12.64 s and 11.84 s and 6.69 s and 5.02 s
attenuation of rise in temperature, in words (yeast-induced pyrexia; 6 and 9 h after yeast injection, in comparison to placebo control group): attenuated the raise in temperature in a highly significant manner
attenuation of rise in temperature, in words (yeast-induced pyrexia; 3 h after yeast injection): significantly attenuated the rise in temperature
Effect on yeast-induced pyrexia (rise in temperature), 3 hours (yeast-induced pyrexia): 1.21 ± 0.13
Effect on yeast-induced pyrexia (rise in temperature), 6 hours (yeast-induced pyrexia): 1.48 ± 0.08
Effect on yeast-induced pyrexia (rise in temperature), 9 hours (yeast-induced pyrexia): 1.83 ± 0.06

CC(=O)Nc1ccc(O)cc1 [Acetaminophen, N-(4-hydroxyphenyl)acetamide, reference compound]
Amplitude of rubbing activity, Mean (formaldehyde pain model): 2.78 s
Amplitude of rubbing activity, Sum (formaldehyde pain model): 16.7 s
No. of rubbings (formaldehyde pain model): 1 (2×) and 2 (2×)
Amplitude of rubbing activity (formaldehyde pain model): 3.1 s and 6.7 s and 2.6 s and 4.3 s
Effect on yeast-induced pyrexia (rise in temperature), 3 hours (yeast-induced pyrexia): 0.83 ± 0.08
Effect on yeast-induced pyrexia (rise in temperature), 6 hours (yeast-induced pyrexia): 1.31 ± 0.23
Effect on yeast-induced pyrexia (rise in temperature), 9 hours (yeast-induced pyrexia): 1.91 ± 0.14
attenuation of rise in temperature, in words (yeast-induced pyrexia; all time intervals): attenuated the rise in temperature to a significant extent at all time intervals
